Assay results as given in patent US20210316003A1 (Immunomedics, Inc., priority 2020, published 2021).
Values joined by “and” are separate entries in the source; they are usually repeats but may differ in a detail not shown here. Equal values may be shown once.

Tested on: patients with mSCLC
Assay: Phase I/II trial (NCT01631552), mSCLC: efficacy by RECIST 1.1
Format: in vivo, human
From the text: Patients ≥18 years of age with mSCLC who had relapsed or were refractory to at least one prior standard line of therapy for stage IV metastatic disease, and with measurable tumors by CT, were enrolled. […] Previous therapy had to be completed at least 4 weeks before enrollment.
The primary endpoint was the proportion of patients with a confirmed objective response, assessed approximately every 8 weeks until disease progression, by each institution's radiology group or a contracted local radiology service. Objective responses were assessed by Response Evaluation Criteria in Solid Tumors, version 1.1 (RECIST 1.1) (Eisenhauer et al., 2009, Eur J Cancer 45:228-47). Partial (PR) or complete responses (CR) required confirmation within 4 to 6 weeks after the initial response. Clinical benefit rate (CBR) is defined as those patients with an objective response plus stable disease (SD) ≥4 months. Survival was monitored every 3 months until death or withdrawal of consent.
The protocol provided that objective response rates (ORR) were determined for patients who received ≥2 doses (1 cycle) and had their initial 8-week CT assessment. Duration of response is defined in accordance to RECIST 1.1 criteria, with those having an objective response marked from time of the first evidence of response until progression, while stable disease duration is marked from the start of treatment until progression. PFS and OS were defined from the start of treatment until an objective assessment of progression was determined (PFS) or death (OS). Duration of response, PFS, and OS were estimated by Kaplan-Meier methods, with 95% confidence intervals (CI), using MedCalc Statistical Software, version 16.4.3 (Ostend, Belgium).

[1] = SG as ≥3 line, no prior topotecan/irinotecan (N = 9)
[2] = SG as ≥3 line, prior topotecan/irinotecan (N = 15)
[3] = prior immune checkpoint inhibitor

sacituzumab govitecan
Duration of SD in ten patients with SD ≥4 months, Kaplan-Meier-derived median: 5.6 months | Median OS for the seven confirmed PR patients: 9.2 months | Median OS for the ten patients with SD ≥4 months: 8.3 months | Confirmed PR (8 mg/kg starting dose, thirteen patients): 8% | Confirmed PR (10 mg/kg starting dose (N = 30)): 20% | CBR (clinical benefit rate) (10 mg/kg starting dose, 14/30): 47% | Patients with a reduction of tumor size from baseline (21 of 43 CT-assessable patients): 49% | Stable disease (SD), including unconfirmed PR (21 of 43 assessable patients): 49% | PD, % (43 with response assessment): (35%) | Duration of confirmed objective response, median (Kaplan-Meier): 5.7 months | Clinical benefit rate (PR + SD ≥ 4 months), % (SG as second line (N = 19)): (37%) | OS, median (SG as second line (N = 19)): 8.1 months | PFS, median (SG as second line (N = 19)): 3.6 months | Clinical benefit rate (PR + SD ≥ 4 months), % (SG as ≥3 line (N = 24)): (38%) | OS, median (SG as ≥3 line (N = 24)): 7.0 months | PFS, median (SG as ≥3 line (N = 24)): 3.7 months | Clinical benefit rate (PR + SD ≥ 4 months), % [1]: (33%) | OS, median [1]: 5.5 months | PFS, median [1]: 3.7 months | Clinical benefit rate (PR + SD ≥ 4 months), % [2]: (40%) | OS, median [2]: 8.8 months | PFS, median [2]: 3.8 months and 3.6 months | Overall survival, median (intention-to-treat N = 53): 7.0 months | Progression-free survival, median (intention-to-treat N = 53): 3.6 months | Tumor shrinkage (SD lasting 8.7 months), single patient [3]: 17% | Tumor shrinkage on first assessment (unconfirmed PR), single patient [3]: 54% | Clinical benefit rate (PR + SD ≥ 4 months), % (resistant (N = 19) to 1st line): (26%) | OS, median (resistant (N = 19) to 1st line): 6.2 months | PFS, median (resistant (N = 19) to 1st line): 3.6 months | Confirmed PR (resistant to first-line platinum, nineteen patients): 16% | PR (second-line setting, 3/19): 16% | Clinical benefit rate (PR + SD ≥ 4 months), % (sensitive (N = 24) to 1st line): (50%) | OS, median (sensitive (N = 24) to 1st line): 8.3 months | PFS, median (sensitive (N = 24) to 1st line): 3.8 months | Confirmed PR (sensitive to first-line platinum, 24 patients): 17% | Median time to response (seven confirmed PR): 2.0 months | Median PFS for the confirmed PR group (seven patients): 7.9 months | Confirmed PR (third or higher line (N = 24)): 16%
